Results as given in patent US12678440B2, “Compositions and methods for treating misfolded protein ocular disorders” (CASE WESTERN RESERVE UNIVERSITY, priority 2020, dated 2026).

System: P23H rhodopsin in Rho^P23H/P23H mice
Assay: Retinal immunoblotting of P23H rhodopsin after IVI in Rho^P23H/P23H mice
Assay type: in vivo, mouse
Conditions: IVI 25 pmol at PND 15; 24, 48 and 72 h; vs PBS; data not shown
Procedure: Cells were seeded in 6-well plates at a density of 5×10^5 cells/well and cultured at 37° C. with 5% CO2 for 17 h. The medium was replaced with a fresh medium containing a corresponding concentration of compounds. After treatment for 24 h, cells collected and lysed in 150 μL PBS containing 0.1% SDS and complete protease inhibitor cocktail with 12 s of sonication on ice. Retina samples were lysed in 300 μL per retina of PBS containing 0.1% SDS and complete protease inhibitor cocktail under 24 s of sonication on ice. Protein concentrations were determined by measurements of OD280 nm using a Nanodrop spectrometer. To immunoblot rhodopsin, one hundred μg of total protein for NIH3T3 (RHO^P23H/GFP) cells, or twenty μg of total protein for NIH3T3 (RHO^WT/GFP) cells was loaded per well onto an SDS-PAGE gel. To detect other proteins, fifty μg of total protein was loaded per well. After separation by electrophoresis in 10% and 16% SDS-PAGE gels, proteins were transferred to a nitrocellulose membrane using a wet membrane electrotransfer cassette followed by blocking with 5% bovine serum albumin in PBS containing 0.05% Tween 20 for 1 h. The membranes were incubated with primary antibodies at 4° C. overnight following with appropriate secondary antibodies for 1 h at room temperature. […]

CN(Cc1cnc2nc(N)nc(N)c2n1)c1ccc(C(=O)N[C@@H](CCC(=O)O)C(=O)O)cc1 [CL-009, N-[4-[[(2,4-diamino-6-pteridinyl)methyl]methylamino]benzoyl]-L-glutamic acid]
P23H rhodopsin level by retinal immunoblotting: did not see consistently and statistically significant difference
